experiment: not given

Structure (SMILES) | logP
CNC(=O)N(C)C(=O)Nc1cc(C(C)(C)C)ccc1F | 3.96
CNC(=O)N(C)C(=O)Nc1cc(C(C)=O)ccc1F | 1.82
CNC(=O)N(C)C(=O)Nc1cc(Cc2ccccc2)ccc1F | 3.9
CNC(=O)N(C)C(=O)Nc1cc(F)ccc1F | 2.4
CNC(=O)N(C)C(=O)Nc1cc(OC)ccc1F | 2.14

Further lines, results first:

logP | Structure (SMILES)
1.87 | CNC(=O)N(C)C(=O)Nc1cc(S(=O)(=O)C(C)C)ccc1F
3.78 | CNC(=O)N(C)C(=O)Nc1cc(-c2ccccc2)ccc1F

experiment: method code SF-AS, from DOI: 10.1021/jf00090a013

Structure (SMILES) | logP
CNC(=O)N(C)C(=O)Nc1cc(OC(C)C)ccc1F | 3.08
CNC(=O)N(C)C(=O)Nc1cc(C(=O)OC)ccc1F | 2.28
CNC(=O)N(C)C(=O)Nc1cc([N+](=O)[O-])ccc1F | 2.3
CNC(=O)N(C)C(=O)Nc1cc(C2CCCCC2)ccc1F | 4.58
CCc1ccc(F)c(NC(=O)N(C)C(=O)NC)c1 | 3.23
CNC(=O)N(C)C(=O)Nc1ccccc1F | 2.12

Results, then the compound that gave them:

logP | Structure (SMILES)
3.53 | CNC(=O)N(C)C(=O)Nc1cc(C(C)C)ccc1F
3.58 | CNC(=O)N(C)C(=O)Nc1cc(I)ccc1F
4.46 | CCC(CC)c1ccc(F)c(NC(=O)N(C)C(=O)NC)c1

Reference: the SangsterLogP compilation
